Experimental data from patent US9802960B2 (MILLENNIUM PHARMACEUTICALS, INC., priority 2014, dated 2017).

biological target: Human VPS34 (Homo sapiens (Human), UniProt Q8NEB9); assay: Human VPS34 enzyme assay (Adapta TR-FRET); assay type: biochemical; conditions: compound concentration 1.11 μM; read-out: Percent Inhibition
Sequence (Q8NEB9 whole entry): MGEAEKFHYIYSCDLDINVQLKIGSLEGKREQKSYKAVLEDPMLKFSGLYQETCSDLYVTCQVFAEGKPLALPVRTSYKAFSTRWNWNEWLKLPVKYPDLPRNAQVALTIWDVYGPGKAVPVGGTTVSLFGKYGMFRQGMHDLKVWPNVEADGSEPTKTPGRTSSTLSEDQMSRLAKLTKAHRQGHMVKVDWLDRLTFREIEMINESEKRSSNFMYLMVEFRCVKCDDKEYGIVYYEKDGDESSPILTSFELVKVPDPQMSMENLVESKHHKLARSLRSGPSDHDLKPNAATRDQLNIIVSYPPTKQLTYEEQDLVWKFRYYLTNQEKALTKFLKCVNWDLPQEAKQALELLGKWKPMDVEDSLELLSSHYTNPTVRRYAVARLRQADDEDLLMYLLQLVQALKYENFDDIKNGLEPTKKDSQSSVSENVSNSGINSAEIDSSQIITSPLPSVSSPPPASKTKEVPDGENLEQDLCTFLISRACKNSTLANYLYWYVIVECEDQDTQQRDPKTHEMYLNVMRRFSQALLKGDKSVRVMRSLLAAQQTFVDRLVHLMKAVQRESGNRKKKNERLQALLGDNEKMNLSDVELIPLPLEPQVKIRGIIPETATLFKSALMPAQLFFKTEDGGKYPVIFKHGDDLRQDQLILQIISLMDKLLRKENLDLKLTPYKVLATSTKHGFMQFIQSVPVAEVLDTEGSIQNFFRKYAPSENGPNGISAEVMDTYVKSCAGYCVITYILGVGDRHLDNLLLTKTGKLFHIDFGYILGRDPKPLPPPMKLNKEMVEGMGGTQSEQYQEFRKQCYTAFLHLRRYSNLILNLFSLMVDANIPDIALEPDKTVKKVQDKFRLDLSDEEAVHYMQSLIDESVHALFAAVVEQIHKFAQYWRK

Inhibition at 1.11 µM, > 99%:
CC(=O)Nc1cc(-c2cnc(C)c(NS(=O)(=O)c3cc(C(F)(F)F)ccc3F)c2)ccn1 [Compound I-143, N-[5-({[2-fluoro-5-(trifluoromethyl)phenyl]sulfonyl}amino)-6-methyl-3,4′-bipyridin-2′-yl]acetamide]
CC(=O)Nc1cc(-c2cnc(C)c(NS(=O)(=O)c3ccccc3F)c2)ccn1 [Compound I-144, N-(5-{[(2-fluorophenyl)sulfonyl]amino}-6-methyl-3,4′-bipyridin-2′-yl)acetamide]
CCOCCS(=O)(=O)c1cc(-c2ccnc(NC(C)=O)c2)cnc1N [Compound I-145, N-{6-amino-5-[(2-ethoxyethyl)sulfonyl]-3,4′-bipyridin-2′-yl}acetamide]
COC(=O)Nc1cc(-c2cnc(C)c(N3CCCS3(=O)=O)c2)ccn1 [Compound I-146, methyl[5-(1,1-dioxidoisothiazolidin-2-yl)-6-methyl-3,4′-bipyridin-2′-yl]carbamate]
CNc1ncc(-c2ccnc(NC(C)=O)c2)cc1N(C)S(C)(=O)=O [Compound I-147, N-{6-(methylamino)-5-[methyl(methylsulfonyl)amino]-3,4′-bipyridin-2′-yl}acetamide]
CC(=O)Nc1cc(-c2cnc(N)c(S(=O)(=O)NCCc3ccccc3)c2)ccn1 [Compound I-148, N-{6-amino-5-[(2-phenylethyl)sulfamoyl]-3,4′-bipyridin-2′-yl}acetamide]
CC(=O)Nc1cc(-c2cnc(N)c(C(=O)N(C)C)c2)ccn1 [Compound I-149, 2′-acetamido-6-amino-N,N-dimethyl-3,4′-bipyridine-5-carboxamide]
CC(=O)Nc1cc(-c2cnc(C)c(NS(=O)(=O)c3c(F)cccc3F)c2)ccn1 [Compound I-150, N-(5-{[(2,6-difluorophenyl)sulfonyl]amino}-6-methyl-3,4′-bipyridin-2′-yl)acetamide]
CC(=O)Nc1cc(-c2cnc3c(c2)c(S(=O)(=O)N2CCCC2)cn3C)ccn1 [Compound I-151, N-{4-[1-methyl-3-(pyrrolidin-1-ylsulfonyl)-1H-pyrrolo[2,3-b]pyridin-5-yl]pyridin-2-yl}acetamide]
CC(=O)Nc1cc(-c2cnc(N)c(C(=O)N3CCOCC3)c2)ccn1 [Compound I-152, N-[6-amino-5-(morpholin-4-ylcarbonyl)-3,4′-bipyridin-2′-yl]acetamide]
CC(=O)Nc1cc(-c2cnc(Cl)c(NS(=O)(=O)c3ccc(F)cc3F)c2C)ccn1 [Compound I-153, N-(6-chloro-5-{[(2,4-difluorophenyl)sulfonyl]amino}-4-methyl-3,4′-bipyridin-2′-yl)acetamide]
CC(=O)Nc1cc(-c2cnc(C)c(NS(=O)(=O)c3ccc(Cl)cc3)c2)ccn1 [Compound I-154, N-(5-{[(4-chlorophenyl)sulfonyl]amino}-6-methyl-3,4′-bipyridin-2′-yl)acetamide]
CC(=O)Nc1cc(-c2cnc(C)c(NS(=O)(=O)c3cccc(F)c3)c2)ccn1 [Compound I-155, N-(5-{[(3-fluorophenyl)sulfonyl]amino}-6-methyl-3,4′-bipyridin-2′-yl)acetamide]
CC(=O)Nc1cc(-c2cnc(N)c(S(=O)(=O)N3CCCCC3)c2)ccn1 [Compound I-156, N-[6-amino-5-(piperidin-1-ylsulfonyl)-3,4′-bipyridin-2′-yl]acetamide]
CC(=O)Nc1cc(-c2cnc(N)c(C(=O)N3CC[C@@H](F)C3)c2)ccn1 [Compound I-157, N-(6-amino-5-{[(3R)-3-fluoropyrrolidin-1-yl]carbonyl}-3,4′-bipyridin-2′-yl)acetamide]
